In patent US20240360114A1 (SIRONAX LTD., priority 2021, published 2024):

Test system: HT-1080 cells
Assay: HT-1080 cell viability assay (ferroptosis induced by RSL3, Cell Titer-Glo)
Type: cell-based
Conditions: Homo sapiens, HT-1080, 20 h, ferroptosis inducer RSL3, 20 hours, ferroptosis inhibitory activity, Table 2
How it was run: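 EC50 fitted by sigmoidal dose-response regression on luminescent viability data normalized to untreated cells. Compounds ran as a 10-point, 3-fold series from 1.1 μM alongside RSL3 for 20 hours, after overnight seeding.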

| SMILES | EC50 |
| --- | --- |
| O=C(NO)C1CC2(CC(Nc3cnc(N4CCC(C(F)(F)F)CC4)nc3)C2)C1 (stereo not drawn) [Compound 428, N-hydroxy-6-((2-(4-(trifluoromethyl)piperidin-1-yl)pyrimidin-5-yl)amino)spiro[3.3]heptane-2-carboxamide] | 0.1 to 100 nM |
| CC(C)C1CCN(c2ncc(NCC[C@H]3CC[C@H](NC(N)=O)CC3)cn2)CC1 [Compound 429, 1-((1r,4r)-4-(2-((2-(4-isopropylpiperidin-1-yl)pyrimidin-5-yl)amino)ethyl)cyclohexyl)urea] | 0.1 to 100 nM |
| CC1CN(c2ccc(NC[C@H]3CC[C@H](N)CC3)cc2F)CC(C)O1 (stereo partly drawn) [Compound 430, N-(((1r,4r)-4-aminocyclohexyl)methyl)-4-(2,6-dimethylmorpholino)-3-fluoroaniline] | 0.1 to 100 nM |
| CC1CN(c2ccc(NC[C@H]3CC[C@H](N)CC3)c(F)c2)CC(C)O1 (stereo partly drawn) [Compound 431, N-(((1r,4r)-4-aminocyclohexyl)methyl)-4-(2,6-dimethylmorpholino)-2-fluoroaniline] | 0.1 to 100 nM |
| Cc1cc(N2CC(C)OC(C)C2)c(F)cc1NC[C@H]1CC[C@H](N)CC1 (stereo partly drawn) [Compound 432, N-(((1r,4r)-4-aminocyclohexyl)methyl)-4-(2,6-dimethylmorpholino)-5-fluoro-2-methylaniline] | 0.1 to 100 nM |
| Cc1c(NC[C@H]2CC[C@H](N)CC2)ccc(N2CC(C)OC(C)C2)c1F (stereo partly drawn) [Compound 433, N-(((1r,4r)-4-aminocyclohexyl)methyl)-4-(2,6-dimethylmorpholino)-3-fluoro-2-methylaniline] | 0.1 to 100 nM |
| CC(C)C1CCN(c2ncc(NC34CC(N)(C3)C4)cn2)CC1 [Compound 434, N1-(2-(4-isopropylpiperidin-1-yl)pyrimidin-5-yl)bicyclo[1.1.1]pentane-1,3-diamine] | 1000 to 10000 nM |
| Cc1cc(N2CCC(C(F)(F)F)CC2)c(F)cc1NC1CCC(C(N)=O)CC1 (stereo not drawn) [Compound 435, 4-((5-fluoro-2-methyl-4-(4-(trifluoromethyl)piperidin-1-yl)phenyl)amino)cyclohexane-1-carboxamide] | 0.1 to 100 nM |
| CCN(CC)c1ccc(NC[C@H]2CC[C@H](N)CC2)cc1 [Compound 436] | 0.1 to 100 nM |
| Cc1cc(NC2CC(C(N)=O)C2)ccc1N1CCC(C(F)(F)F)CC1 (stereo not drawn) [Compound 437, 3-((3-methyl-4-(4-(trifluoromethyl)piperidin-1-yl)phenyl)amino)cyclobutane-1-carboxamide] | 0.1 to 100 nM |
| CC1CN(c2ccc(NC[C@H]3CC[C@H](N)CC3)cc2Cl)CC(C)O1 (stereo partly drawn) [Compound 438, N-(((1r,4r)-4-aminocyclohexyl)methyl)-3-chloro-4-(2,6-dimethylmorpholino)aniline] | 0.1 to 100 nM |
| CC1CN(c2c(F)cc(NC[C@H]3CC[C@H](N)CC3)cc2F)CC(C)O1 (stereo partly drawn) [Compound 439, N-(((1r,4r)-4-aminocyclohexyl)methyl)-4-(2,6-dimethylmorpholino)-3,5-difluoroaniline] | 100 to 1000 nM |
| CC1CN(c2ccc(NC3CCCCC3N)cc2)CC(C)O1 (stereo not drawn) [Compound 440, N1-(4-(2,6-dimethylmorpholino)phenyl)cyclohexane-1,2-diamine] | 100 to 1000 nM |
| CC1CN(c2ccc(NC3CCCCC3N)c(F)c2)CC(C)O1 (stereo not drawn) [Compound 441, N1-(4-(2,6-dimethylmorpholino)-2-fluorophenyl)cyclohexane-1,2-diamine] | 100 to 1000 nM |
| Cc1cc(N2CC(C)OC(C)C2)ccc1NC1CCCCC1N (stereo not drawn) [Compound 442, N1-(4-(2,6-dimethylmorpholino)-2-methylphenyl)cyclohexane-1,2-diamine] | 100 to 1000 nM |
| Cc1nc(N2CC(C)OC(C)C2)ccc1NC1CCC(N)CC1 (stereo not drawn) [Compound 443, N1-(6-(2,6-dimethylmorpholino)-2-methylpyridin-3-yl)cyclohexane-1,4-diamine] | 100 to 1000 nM |
| N[C@@H]1CCC[C@H]1Nc1ccc(N2CCC(C(F)(F)F)CC2)cc1 [Compound 444, (1R,2R)-N1-(4-(4-(trifluoromethyl)piperidin-1-yl)phenyl)cyclopentane-1,2-diamine] | 0.1 to 100 nM |
| CC1(C)CN(c2ccc(NC[C@H]3CC[C@H](N)CC3)cc2)CC(C)(C)O1 [Compound 445, N-(((1r,4r)-4-aminocyclohexyl)methyl)-4-(2,2,6,6-tetramethylmorpholino)aniline] | 0.1 to 100 nM |
| Cc1cc(N2CCC(C(F)(F)F)CC2)ccc1NCCCC[C@H]1CC[C@H](N)CC1 [Compound 447, N-(4-((1r,4s)-4-aminocyclohexyl)butyl)-2-methyl-4-(4-(trifluoromethyl)piperidin-1-yl)aniline] | 0.1 to 100 nM |
| CC(C)C1CCN(c2ncc(NC[C@H]3C[C@H](N)C3)cn2)CC1 [Compound 448, N-(((1r,3r)-3-aminocyclobutyl)methyl)-2-(4-isopropylpiperidin-1-yl)pyrimidin-5-amine] | 0.1 to 100 nM |
| NC1CCC(CNc2ccc(N3CCS(=O)(=O)CC3)cc2)CC1 (stereo not drawn) [Compound 449, 4-(4-(((4-aminocyclohexyl)methyl)amino)phenyl) thiomorpholine 1,1-dioxide] | 1000 to 10000 nM |
| CC1CN(c2ccc(NC3CCC(N)CC3)cc2)CC(C)O1 (stereo not drawn) [Compound 450, N1-(4-(2,6-dimethylmorpholino)phenyl)cyclohexane-1,4-diamine] | 100 to 1000 nM |

More lines, now with the values ahead:

| EC50 | SMILES |
| --- | --- |
| 0.1 to 100 nM | CC(C)C1CCN(c2ncc(NC3C4CC5CC3CC(NC(N)=O)(C5)C4)cn2)CC1 (stereo not drawn) [Compound 408, 1-(4-((2-(4-isopropylpiperidin-1-yl)pyrimidin-5-yl)amino)adamantan-1-yl)urea] |
| 0.1 to 100 nM | CC(C)C1CCN(c2ncc(NC[C@H]3CC[C@H](NC(N)=O)CC3)cn2)CC1 [Compound 409, 1-((1r,4r)-4-(((2-(4-isopropylpiperidin-1-yl)pyrimidin-5-yl)amino)methyl)cyclohexyl)urea] |
| 0.1 to 100 nM | CC1(C)CCN(c2ncc(NC3C4CC5CC3CC(C(N)=O)(C5)C4)cn2)CC1 (stereo not drawn) [Compound 410, 4-((2-(4,4-dimethylpiperidin-1-yl)pyrimidin-5-yl)amino)adamantane-1-carboxamide] |
| 0.1 to 100 nM | CC(C)C1CCN(c2ccc(NC3CCC(N)CC3)nn2)CC1 (stereo not drawn) [Compound 411, N1-(6-(4-isopropylpiperidin-1-yl)pyridazin-3-yl)cyclohexane-1,4-diamine] |
| 0.1 to 100 nM | CC(C)C1CCN(c2ncc(NC3CC4(CC(NCCF)C4)C3)cn2)CC1 (stereo not drawn) [Compound 412, N2-(2-fluoroethyl)-N6-(2-(4-isopropylpiperidin-1-yl)pyrimidin-5-yl)spiro[3.3]heptane-2,6-diamine] |
| 0.1 to 100 nM | CC(C)C1CCN(c2ncc(NC3CC4(CC(NCC(F)F)C4)C3)cn2)CC1 (stereo not drawn) [Compound 413, N2-(2,2-difluoroethyl)-N6-(2-(4-isopropylpiperidin-1-yl)pyrimidin-5-yl)spiro[3.3]heptane-2,6-diamine] |
| 0.1 to 100 nM | CC(C)C1CCN(c2ncc(NC3CC4(CC(NCC(F)(F)F)C4)C3)cn2)CC1 (stereo not drawn) [Compound 414, N2-(2-(4-isopropylpiperidin-1-yl)pyrimidin-5-yl)-N6-(2,2,2-trifluoroethyl)spiro[3.3]heptane-2,6-diamine] |
| 0.1 to 100 nM | OC1CCCCC1Nc1ccc(N2CCC(C(F)(F)F)CC2)cc1 (stereo not drawn) [Compound 415, 2-((4-(4-(trifluoromethyl)piperidin-1-yl)phenyl)amino)cyclohexan-1-ol] |
| 0.1 to 100 nM | NC1CCC(Nc2ccc(N3CCC(C(F)(F)F)CC3)c(OCCO)c2)CC1 (stereo not drawn) [Compound 416, (5-((4-aminocyclohexyl)amino)-2-(4-(trifluoromethyl)piperidin-1-yl)phenoxy) ethan-1-ol] |
| 0.1 to 100 nM | Cc1cc(N2CC(C)CC(C)C2)ccc1NC[C@H]1CC[C@H](N)CC1 (stereo partly drawn) [Compound 418] |
| 0.1 to 100 nM | Cc1cc(N2CCC(C(F)(F)F)C2)ccc1NC[C@H]1CC[C@H](N)CC1 (stereo partly drawn) [Compound 419, N-(((1r,4r)-4-aminocyclohexyl)methyl)-2-methyl-4-(3-(trifluoromethyl)pyrrolidin-1-yl)aniline] |
| 0.1 to 100 nM | CN[C@H]1CC[C@H](CNc2ccc(N3CC(C)OC(C)C3)cc2)CC1 (stereo partly drawn) [Compound 420, 4-(2,6-dimethylmorpholino)-N-(((1r,4r)-4-(methylamino)cyclohexyl)methyl)aniline] |
| 0.1 to 100 nM | CC1CN(c2ccc(NC3C4CC5CC3CC(N)(C5)C4)cc2)CC(C)O1 (stereo not drawn) [Compound 421A, N^4-(4-(2,6-dimethylmorpholino)phenyl)adamantane-1,4-diamine] |
| 0.1 to 100 nM | CC(C)C1CCN(c2ncc(NC3CC4(CC(O)C4)C3)cn2)CC1 (stereo not drawn) [Compound 422, 6-((2-(4-isopropylpiperidin-1-yl)pyrimidin-5-yl)amino)spiro[3.3]heptan-2-ol] |
| 0.1 to 100 nM | CC(C)C1CCN(c2ncc(NC[C@H]3CC[C@H](C(N)=O)CC3)cn2)CC1 [Compound 423, (1r,4r)-4-(((2-(4-isopropylpiperidin-1-yl)pyrimidin-5-yl)amino)methyl)cyclohexane-1-carboxamide] |
| 0.1 to 100 nM | CC(C)C1CCN(c2ncc(NC3C4CC5CC3CC(O)(C5)C4)cn2)CC1 (stereo not drawn) [Compound 424, 4-((2-(4-isopropylpiperidin-1-yl)pyrimidin-5-yl)amino) adamantan-1-ol] |
| 0.1 to 100 nM | CC1CC(C)CN(c2ncc(NC3CC4(CC(NC(=O)C(N)=O)C4)C3)cn2)C1 (stereo not drawn) [Compound 425, N1-(6-((2-(3,5-dimethylpiperidin-1-yl)pyrimidin-5-yl)amino)spiro[3.3]heptan-2-yl)oxalamide] |
| 0.1 to 100 nM | CC1CN(c2ccc(NC3C4CC5CC3CC(CN)(C5)C4)cc2)CC(C)O1 (stereo not drawn) [Compound 426, 5-(aminomethyl)-N-(4-(2,6-dimethylmorpholino)phenyl)adamantan-2-amine] |
| 0.1 to 100 nM | NNC(=O)C1CC2(CC(Nc3cnc(N4CCC(C(F)(F)F)CC4)nc3)C2)C1 (stereo not drawn) [Compound 427, 6-((2-(4-(trifluoromethyl)piperidin-1-yl)pyrimidin-5-yl)amino)spiro[3.3]heptane-2-carbohydrazide] |

Same assay, conditions: ferroptosis inducer RSL3, 20 hours, ferroptosis inhibitory activity, Table 2

| EC50 | SMILES |
| --- | --- |
| 0.1 to 100 nM | Cc1cc(N2CC(C)OC(C)C2)ccc1NCC1CCC(N)CC1 (stereo not drawn) [Compound 407, N-(((1r,4r)-4-aminocyclohexyl)methyl)-4-(2,6-dimethylmorpholino)-2-methylaniline] |
